According to paper PMC4264242, “Androgen Receptor Antagonists and Anti-Prostate Cancer Activities of Some Newly Synthesized Substituted Fused Pyrazolo-, Triazolo- and Thiazolo-Pyrimidine Derivatives” (International Journal of Molecular Sciences, 2014):
“Also recorded” adds a separate entry of the source.

Columns and labels:
castrated immature rats = experiment: In vivo anti-androgenic activity in castrated immature rats treated with testosterone propionate; design: species or system rat; details: for ED50: Rattus norvegicus, read-out: ED50, in vivo anti-androgen activity; for % (Inhibition), in vivo anti-androgen activity: inhibition of TP effect (TP 0.5 mg/kg s.c. once daily for 5 days), tested compound 10-30 mg/kg p.o.
Text: […] male Wistar rats were obtained from the Animal House Colony, Research Institute of Ophthalmology, Giza, Egypt. Prepubertal male rats aged 3 weeks were castrated using the scrotal route under ether anesthesia.

mutant AR in LNCaP cells = target: T1, mutant AR in LNCaP cells (Homo sapiens, UniProt P10275, T878A); experiment: Anti-prostate cancer screening, anti-androgenic bioassay (AR transactivation) in LNCaP cells; format: cell-based; details: 1 nM DHT, 24 h
T1 construct: endogenous in cells; host or cells: LNCaP cells (only reporter plasmids transfected)
T1 sequence (P10275 1-920 T878A): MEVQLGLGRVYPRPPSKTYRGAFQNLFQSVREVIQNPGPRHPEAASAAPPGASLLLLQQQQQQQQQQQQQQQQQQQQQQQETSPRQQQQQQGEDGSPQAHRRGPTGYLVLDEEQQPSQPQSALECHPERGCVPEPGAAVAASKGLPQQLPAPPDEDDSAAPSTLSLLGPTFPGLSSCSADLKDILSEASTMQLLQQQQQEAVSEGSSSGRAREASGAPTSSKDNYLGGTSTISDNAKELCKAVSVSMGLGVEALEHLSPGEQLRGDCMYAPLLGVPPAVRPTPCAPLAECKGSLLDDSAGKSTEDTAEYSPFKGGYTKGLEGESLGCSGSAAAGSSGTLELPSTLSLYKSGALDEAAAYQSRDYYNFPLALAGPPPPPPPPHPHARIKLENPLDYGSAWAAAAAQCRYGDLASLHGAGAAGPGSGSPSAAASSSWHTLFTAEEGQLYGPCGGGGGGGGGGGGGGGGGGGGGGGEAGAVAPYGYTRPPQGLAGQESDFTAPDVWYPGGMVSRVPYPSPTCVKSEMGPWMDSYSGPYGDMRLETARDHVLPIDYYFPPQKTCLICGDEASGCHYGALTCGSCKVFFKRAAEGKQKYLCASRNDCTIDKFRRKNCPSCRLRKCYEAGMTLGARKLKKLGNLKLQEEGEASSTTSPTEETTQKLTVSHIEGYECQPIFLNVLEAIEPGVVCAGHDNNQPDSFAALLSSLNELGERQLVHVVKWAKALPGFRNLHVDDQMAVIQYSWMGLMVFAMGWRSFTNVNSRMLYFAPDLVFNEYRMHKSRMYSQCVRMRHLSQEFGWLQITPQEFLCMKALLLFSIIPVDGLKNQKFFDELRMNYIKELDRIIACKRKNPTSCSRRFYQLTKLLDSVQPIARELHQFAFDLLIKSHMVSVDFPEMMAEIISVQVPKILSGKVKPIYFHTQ
Method: Human prostate cancer LNCaP and PC-3 cells were maintained in RPMI medium and Dulbecco’s minimum essential medium (DMEM), respectively. Both media were supplemented with penicillin (25 units/mL), streptomycin ([…]), and 10% fetal calf serum. For the androgen receptor transactivation assay, an androgen-dependent reporter gene transcription test was employed as the primary screening for potential anti-androgen identification. This assay was first performed in LNCaP cells, which express a clinically relevant mutant AR. […] Wild type AR transactivation assay was performed in PC-3 host cells, which lack an endogenous, functional AR. The method and conditions of cell and gene transfection have been described previously. In brief, cells were plated in 24-well tissue culture dishes for 24 (PC-3 cells) or 48 (LNCaP cells) h prior to transfection. Subsequently, LNCaP cells were transfected with a reporter gene, MMTV-luciferase, which contains a MMTV-long terminal repeat (LTR) promoter and an androgen receptor binding element, and Renilla Luciferase Control Reporter Vectors 40 (PRL-SV40), which served as an internal control for transfection efficiency. PC-3 cells were transfected with a wild type AR expression plasmid, plasmide gene-5 androgen recptor (pSG5AR), in addition to the above-mentioned MMTV-luciferase reporter gene and PRL-SV40 internal control. SuperFect (Qiagen, Chatsworth, CA, USA) was employed as the transfection reagent following the manufacturer’s recommendations. At the end of a 5-h transfection, the medium was changed to DMEM or RPMI supplemented with 10% charcoal dextran-stripped, i.e., androgen-depleted, serum. After 24 h, the cells were treated with 1 nM of DHT and/or test compounds at the designated concentrations.
After 24 h the cells were harvested for luciferase activity assay using the Dual Luciferase Assay System (Promega, Madison, WI, USA.). The derived data was expressed as relative luciferase activity normalized to the internal luciferase control.

| SMILES | ED50 (castrated immature rats) [mg/kg] | % (Inhibition), in vivo anti-androgen activity (castrated immature rats) | IC50 (mutant AR in LNCaP cells) [nM] | ED50, in vivo anti-androgen activity (castrated immature rats; castrated immature rats, TP 0.5 mg/kg s.c., compound p.o.) | % (Inhibition), in vivo anti-androgen activity (castrated immature rats; listed as compound 1) | IC50 LNCaP, anti-prostate cancer activity (mutant AR in LNCaP cells) |
| --- | --- | --- | --- | --- | --- | --- |
| Nc1ncnc2c1cnn2-c1nc2c(ccc3ccccc32)s1 [Compound 3] | 0.063 | 91% | 58.6 | – | – | – |
| N#Cc1cnn(-c2nc3c(ccc4ccccc43)s2)c1/N=C\NN [Compound 9, 2-[3-Imidoformic hydrazido-4-cyanopyrazol-2-yl]naphthalino[1,2-d]thiazole] | 0.095 | 86.56% | 76.6 | – | – | – |
| NNc1nc2c(ccc3ccccc32)s1 [Compound 1, 1-(naphtho[1,2-d]thiazol-2-yl)hydrazine] | – | Inactive | – | Inactive | devoid from any activities | devoid from any activities; also recorded: Inactive |
| Cc1nc2c3cnn(-c4nc5c(ccc6ccccc65)s4)c3ncn2n1 [Compound 10, 2-[6-Methyl[1,2,4]triazolo[2,3-c]pyrimidino[6,5-c]pyrazol-2-yl]naphthalino[1,2-d]thiazole] | 0.071 | 98.87% | 43.5 | – | – | – |
| CCOC1SCC2NC(=O)c3cnn(-c4nc5c(ccc6ccccc65)s4)c3N21 (stereo not shown) [Compound 13, 2-[3-Ethoxy-5-dihydro-6H-7-oxo-[1,3]thiazolo[3,4-b]pyrimidino[4,5-c]pyrazol-2-yl]naphthalino[1,2-d]thiazole] | 0.047 | 97.56% | 49.6 | – | – | – |
| CCOC1SCC(=O)N1c1c(C#N)cnn1-c1nc2c(ccc3ccccc32)s1 (stereo not shown) [Compound 12, 2-[3-(2-Ethoxy-4-oxo-5-dihydro-1,3-thiazol-3-yl)-4-cyanopyrazol-2-yl]-naphthalino[1,2-d]thiazole] | 0.098 | 84.65% | 80 | – | – | – |
| N=c1c2cnn(-c3nc4c(ccc5ccccc54)s3)c2ncn1NC(=O)c1ccccc1 [Compound 11] | 0.045 | 90.01% | 61.6 | – | – | – |
| N=c1sc(=S)[nH]c2c1cnn2-c1nc2c(ccc3ccccc32)s1 [Compound 6, 2-[6-Imino-3H-4-thiothiazino[4,5-c]pyrazol-2-yl]naphthalino[1,2-d]thiazole] | 0.092 | 88.76% | 72.4 | – | – | – |
| N#Cc1cnn(-c2nc3c(ccc4ccccc43)s2)c1N [Compound 2, 2-[3-Amino-4-cyanopyrazol-2-yl]naphthalino[1,2-d]thiazole] | 0.049 | 95.49% | 51.5 | – | – | – |
| Nc1nc(=S)[nH]c2c1cnn2-c1nc2c(ccc3ccccc32)s1 [Compound 5, 2-[6-Amino-3H-4-thiopyrimidino[4,5-c]pyrazol-2-yl]naphthalino[1,2-d]thiazole] | 0.089 | 89.09% | 64.3 | – | – | – |
| CCO/C=N\c1c(C#N)cnn1-c1nc2c(ccc3ccccc32)s1 [Compound 8, 2-[3-Ethylimidoformat-4-cyanopyrazol-2-yl]naphthalino[1,2-d]thiazole] | 0.097 | 85.43% | 78.5 | – | – | – |
| Nc1n[nH]c2c1cnn2-c1nc2c(ccc3ccccc32)s1 [Compound 4] | 0.051 | 93.98% | 56.6 | – | – | – |
